Assay results: patent EP1831198B1, “PYRIDINE CARBOXAMIDE DERIVATIVES FOR USE AS ANTICANCER AGENTS” (AstraZeneca AB, priority 2004, dated 2006)

Target: human recombinant, purified wild type His-B-Raf protein kinase (Homo sapiens, UniProt P15056)
Assay: B-Raf in vitro ELISA assay
Assay type: biochemical
Details: phosphorylation of MEK1; 2.5 nM B-Raf, 0.15 µM MEK1, 10 µM ATP
Source text: Data was graphed and IC50s calculated using Excel Fit (Microsoft).

Chain of human recombinant, purified wild type His-B-Raf protein kinase (P15056 whole entry): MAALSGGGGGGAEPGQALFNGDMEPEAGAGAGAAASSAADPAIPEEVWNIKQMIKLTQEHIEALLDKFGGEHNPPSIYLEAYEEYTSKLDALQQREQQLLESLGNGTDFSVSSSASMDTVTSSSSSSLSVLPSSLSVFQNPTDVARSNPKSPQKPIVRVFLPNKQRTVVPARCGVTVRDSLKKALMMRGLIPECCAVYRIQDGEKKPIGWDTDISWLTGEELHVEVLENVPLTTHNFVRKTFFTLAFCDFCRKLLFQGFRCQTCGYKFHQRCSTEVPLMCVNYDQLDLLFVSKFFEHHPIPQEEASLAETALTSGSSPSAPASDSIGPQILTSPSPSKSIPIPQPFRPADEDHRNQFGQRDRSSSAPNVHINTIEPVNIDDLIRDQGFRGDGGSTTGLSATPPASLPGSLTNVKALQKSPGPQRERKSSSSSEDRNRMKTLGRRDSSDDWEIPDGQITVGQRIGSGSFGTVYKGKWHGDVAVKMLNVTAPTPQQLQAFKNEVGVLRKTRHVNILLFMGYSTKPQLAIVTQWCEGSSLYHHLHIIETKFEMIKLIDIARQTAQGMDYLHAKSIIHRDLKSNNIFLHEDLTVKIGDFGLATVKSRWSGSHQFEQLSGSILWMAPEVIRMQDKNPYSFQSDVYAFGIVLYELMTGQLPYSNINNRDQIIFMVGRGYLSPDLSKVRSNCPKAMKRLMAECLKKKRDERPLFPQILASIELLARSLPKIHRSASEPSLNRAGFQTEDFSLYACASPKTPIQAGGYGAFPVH

`Cc1ccc(NC(=O)c2cccc3c2OCC3)cc1C(=O)Nc1cccnc1` [Example 9, N-{4-Methyl-3-[(pyridin-3-ylamino)carbonyl]phenyl}-2,3-dihydro-1-benzofuran-7-carboxamide] gave an IC50 of 1080 nM.
